The values that follow come from PubChem BioAssay AID2305 (GlaxoSmithKline (GSK), 2010).

SMILES strings stand for the structures.

The subject of this assay is P. falciparum 3D7 growth, pLDH absorbance. Briefly: P. falciparum 3D7 growth inhibition, dose response, strain 3D7 (AID 2305).

On to `COc1cc(C(=O)N2N=C(c3c(-c4ccccc4)c4cc(Br)ccc4[nH]c3=O)CC2c2cccc([N+](=O)[O-])c2)cc(OC)c1OC` (stereo not given), for which the IC50 is 940 nM. This counts as sub-micromolar.
Regarding `O=C(Nc1cccc(Cl)c1Cl)N[C@H]1CCN(CCCCCNC(=O)[C@@H]2C[C@H]2c2ccc(Cl)c(Cl)c2)C1`, the IC50 was 1280 nM.
Regarding `O=C(Nc1ccc(Br)cc1)Nc1ccc(Cn2ncc(N3CCCNCC3)c(Cl)c2=O)cc1`, the IC50 came out at 1140 nM.
In turn, `O=C(Nc1cccc(-c2ccc(CN3CCNCC3)cc2)c1)c1cccc(Cl)c1` displayed an IC50 of 1250 nM. The IC50 values of the last two compounds are within 1.5-fold of each other.
For the compound `N#Cc1ccc(-c2ccc(C(=O)NCCCCN3CCC(c4ccc5c(c4OCC(N)=O)CCCC5)CC3)nc2)cc1`, the IC50 is 730 nM.
`CN(C)CCCc1cc2c(cc1Cl)CCN2C(=O)Nc1ccc(-c2ccncc2)c2ccccc12` yielded an IC50 of 1180 nM.
On to `COc1ccc(CNC(=O)c2cnc3c(O)cccc3c2Nc2cccc(NC(=O)c3ccc(-c4ccccc4)cc3)c2)cc1`, for which the IC50 came to 940 nM.
Compound `CN(C)CCC(O)C=C(c1ccc(Cl)cc1)c1ccc(Cl)cc1` (stereo not given) gave an IC50 of 950 nM.
Regarding `Cc1ccc(O)cc1Nc1ccnc2cc(-c3nccs3)ccc12`, the IC50 was determined as 880 nM.
Then `Nc1ncnc2occ(-c3ccc(NC(=O)Nc4cc(C(F)(F)F)ccc4F)cc3)c12`, with 1720 nM.
`O=C(NCC1CCN(Cc2cccc(C(F)(F)F)c2)C1)c1cc(-c2cccc(F)c2)cs1` (stereo not given) registered an IC50 of 1180 nM.
`Oc1ccc(CN2CCN(CCOC(c3ccccc3)c3ccc(Cl)cc3)CC2)cc1Cl` (stereo not given): the IC50 came to 860 nM.
Turning to `Oc1ccc(CCNc2nc(NCc3ccccc3-c3ccc(C(F)(F)F)cc3)nc(N3CCNCC3)n2)cc1`, the concentration for half-maximal inhibition (IC50) was determined as 870 nM.
`O=C1COC2(CN1C1CCN(Cc3ccc(O)c(Cl)c3)C1)c1ccccc1-c1ccccc12` (stereo not given) displayed an IC50 of 960 nM.
Take `O=c1ccc2ccc(F)c3c2n1CC3CN1CCC(NCc2cccc(-c3ccccc3F)c2)CC1` (stereo not given): the IC50 was determined as 1100 nM. The IC50 values of the last two compounds are within 1.5-fold of each other.
`COc1ccc(C(=O)CCC(=O)N(Cc2ccc(-c3ccc(CNCc4cccnc4)cn3)cc2)C2CCN(Cc3ccccc3)CC2)cc1F` showed an IC50 of 980 nM.
For `Cc1cc(O)c(CNC2CCCCC2)cc1C`, the IC50 came out at 1050 nM.
Then `O=C(Cc1cnc[nH]1)Nc1cccc(-c2ccc(-c3nc4ccc(F)cc4[nH]3)cc2)c1`, with 810 nM; and `COc1cc(C(=O)NC2CCc3ccccc32)cc(Cl)c1OC` (stereo not given), with 1100 nM; and `Cc1ccc(NC(=O)c2ccc(CN3CCCN(CCC(C)C)CC3)cc2)cc1C`, with 910 nM.
The value for `CC(=O)c1cccc(NC(=O)c2ccc(Cl)c(S(=O)(=O)N3CCc4ccccc43)c2)c1` was 1640 nM; that for `Nc1nc(N)c2cc(S(=O)(=O)c3ccc4ccccc4c3)ccc2n1` was 40 nM; that for `O=C(NC=Nc1cc([N+](=O)[O-])c(-c2cccnc2)n1-c1ccc(O)cc1)c1ccccc1` was 300 nM.
`O=c1cc(NCCCN(Cc2ccccc2)Cc2ccccc2)[nH]c2ccccc12` yielded an IC50 of 580 nM.
Regarding `CC(C)N1CCN(C(CN2CCN(CCCOc3ccccc3-c3ccccc3)CC2)c2ccc(F)cc2)CC1` (stereo not given), the IC50 came out at 790 nM.
The compound `COc1ccc(-c2cnc3[nH]cc(-c4ccncc4)c3c2)cc1OC` had an IC50 of 130 nM. Against the preceding compound, the IC50 is about 6.1-fold lower.
As for `CC(C)c1ccc(CN2CCC(NC(=O)c3ccc(-c4cccc(Cl)c4)s3)CC2)cc1`, the IC50 was determined as 1430 nM.
`Cc1cc(N)c2cc(NC(=O)c3ccc4ccccc4c3)ccc2n1` had an IC50 of 250 nM.
`CN1CCN(CCCN(Cc2ccc(-c3cccc(CNCc4ccc5c(c4)OCO5)c3)cc2)C(=O)NC2CCCCC2)CC1` registered an IC50 of 990 nM.
`CC(C)CC(=O)Nc1cc(=O)[nH]c2nc(-c3ccccc3)nn12` yielded an IC50 of 350 nM.
The compound `N#Cc1cccc(NC(=O)Nc2ccc3c(c2)CN(Cc2c[nH]c4ncccc24)C3)c1` displayed an IC50 of 800 nM.
On to `NC1=NC(c2ccccc2)(c2ccccc2)C(=O)N1C1CCCCC1`, for which the IC50 turned out to be 660 nM. This IC50 and that of the compound before are within 1.5-fold of each other.
The value for `N#Cc1cncc(-c2nc3c(N4CCC(Cc5ccccc5)CC4)cccc3n2C2CCNC2)c1` (stereo not given) was 990 nM.
In turn, `CC1CCNc2ccc(Cc3cnc(N)nc3N)cc21` (stereo not given) gave an IC50 of 1040 nM.
Compound `CC(C)(C)c1ccc(C(=O)Nc2ccc(NC(=O)c3ccc([N+](=O)[O-])o3)cc2)cc1` yielded an IC50 of 840 nM.
In turn, `COc1cc(C)cc(CN2CCC(Cc3ccccc3)CC2)c1O` displayed an IC50 of 1020 nM.
In turn, `CC(C)C[C@H](NC(=O)c1cc2cc(OCCN3CCNCC3)ccc2o1)C(=O)NC1CC[C@@H](C)N(C(=O)Nc2ccc(Cl)cc2)CC1=O` (stereo not given in full) showed a concentration for half-maximal inhibition (IC50) of 380 nM.
The value for `COc1ccc2[nH]cc(C3=CCN(C[C@H]4C[C@@H]4C(=O)c4ccccc4)CC3)c2n1` was 270 nM; that for `CC(C)(CNCc1ccc(F)c(F)c1)c1nc(-c2ccc(Cl)c(O)c2)c(-c2ccnc(N)n2)[nH]1` was 740 nM.
`O=C(Nc1ccc(Cl)cc1)Nc1ccc(-c2cccc(-c3nc4ccc(F)cc4[nH]3)c2)cc1` returned an IC50 of 290 nM.
As to `CC(=O)Nc1cccc(C(=O)Nc2cccc(-c3ccc(-c4nc5c(C)cccc5[nH]4)s3)c2)c1`, the IC50 was found to be 770 nM.
Regarding `C[C@@H](COc1ccccc1)NCC(O)c1ccc([N+](=O)[O-])c(OCc2ccccc2)c1` (stereo not given in full), the IC50 is 990 nM.
The value for `Cc1[nH]nc2cc(F)c(-c3cc(OC[C@@H](N)Cc4ccccc4)cnc3-c3ccoc3)cc12` was 1040 nM; that for `CC(C)(C)c1ccc(CN2CCC(NC(=O)c3ccc(-c4cccc(C(F)(F)F)c4)s3)CC2)cc1` was 360 nM; that for `CC(=O)Oc1cc(C)ccc1C1CCN(CCCCNC(=O)c2ccc(NC(=O)c3ccc(Cl)cc3)cc2)CC1` was 720 nM.
The compound `CN(Cc1cnc2nc(N)nc(N)c2n1)c1ccc(C(=O)NC(CCC(=O)O)C(=O)O)cc1` (stereo not given) returned an IC50 of 180 nM.
`COc1cc(NC(=O)c2ccc3oc4ccccc4c3c2)ccc1OCCN1CCCCC1` showed an IC50 of 920 nM.
`Cc1cccc(C)c1N1CCN(C2CCC(NC(=O)/C=C/c3ccccc3)CC2)CC1` (stereo not given) returned an IC50 of 1180 nM.
In turn, `Oc1ccc(CCNc2nc(NCCOc3ccccc3-c3ccccc3)nc(N3CCNCC3)n2)cc1` showed an IC50 of 1040 nM.
`Fc1cc(Cl)ccc1Nc1ccnc2cc(-c3ccc(CN4CCCCC4)o3)ccc12`: the IC50 was determined as 340 nM. Compared with the last compound, the IC50 is about 3.1-fold lower.
The value for `CCOc1ccc2ccccc2c1CNCCCCCCNCc1c(OCC)ccc2ccccc12` was 580 nM.
Compound `CCN1C(=O)N(CCC(C)C)C2(CCN(Cc3ccc(OC)cc3O)CC2)C1=O` gave an IC50 of 870 nM.
`CCOc1ncccc1CN1CCC(N2CCc3cc(NC(=O)c4ccco4)ccc32)C1` (stereo not given) showed an IC50 of 760 nM.
Then `CN1CCN(c2cc(-c3ccncc3)nc(-c3cccnc3)n2)CC1`, with 810 nM; and `CCNc1cc(C(=O)N[C@@H](Cc2ccccc2)[C@H](O)CN[C@@H]2CCc3ccccc32)cc(N2CCCCS2(=O)=O)c1`, with 550 nM; and `O=C(NC1CC1)c1cnc(N2CCC(Oc3ccc(Cl)cc3)CC2)c(Cl)c1`, with 1090 nM.
On to `CC1CCCCN1S(=O)(=O)c1ccc(NC(=O)c2cc(-c3ccccc3O)n[nH]2)cc1` (stereo not given), for which the IC50 is 760 nM.
Compound `CC(C)c1ccc2oc(-c3ccc(NC(=O)c4ccc([N+](=O)[O-])o4)cc3)nc2c1` displayed an IC50 of 340 nM. Against the preceding compound, the IC50 is about 2.2-fold lower.
In turn, `c1cc(-c2ccc(CN3CCN(c4ccncc4)CC3)cc2)cc(-c2nc3ccccc3[nH]2)c1` showed an IC50 of 140 nM.
Compound `Oc1ccccc1CN(CCCN(Cc1ccccn1)Cc1ccccc1O)Cc1ccccn1` came in with an IC50 of 1060 nM.
With `CC(C)(C)OC(=O)N1CCN(c2ccccc2NC(=O)c2cccc(C(F)(F)F)c2Oc2ccc(F)cc2)CC1`, the concentration for half-maximal inhibition (IC50) was 860 nM.
As to `COc1ccc(Nc2cc(C)nc(NCc3ccc4c(c3)OCO4)n2)cc1`, the IC50 came out at 770 nM. This IC50 and that of the compound before are within 1.5-fold of each other.
In turn, `CCN(CC)CCN(Cc1ccc(-c2ccc(C(F)(F)F)cc2)cc1)C(=O)Cn1c(CCc2cccc(F)c2F)nc(=O)c2ccccc21` showed an IC50 of 670 nM. This IC50 and that of the compound before are within 1.5-fold of each other.
`Cc1nc(-c2ccc(-c3ccc(NC(=O)c4coc5ccc(N6C[C@@H](C)N[C@@H](C)C6)cc45)cc3)c(C)c2)no1` gave an IC50 of 930 nM.
`COc1cc([N+](=O)[O-])ccc1NC(=O)Nc1ccc(OC(F)(F)F)cc1` came in with an IC50 of 1030 nM. This IC50 and that of the compound before are within 1.5-fold of each other.
As for `CCc1nc2c(N)nc(N)nc2nc1-c1ccc(OC)cc1`, the IC50 stood at 1200 nM. The IC50 values of the last two compounds are within 1.5-fold of each other.
As to `CC(C)=CCc1c(-c2ccc(O)cc2O)oc2c3c(cc(O)c2c1=O)OC(C)(C)C=C3`, the IC50 was determined as 980 nM.
On to `COc1ccc(-c2ccc(NC(=O)c3cccs3)cc2)cc1CN1CCCN(C)CC1`, for which the IC50 was found to be 960 nM.
The compound `O=C(Cc1cccc2ccccc12)N1CCc2cc3nccc(N4CCN5CCC[C@H]5C4)c3cc21` yielded an IC50 of 780 nM.
With `COc1ccc(C=CC(=O)N2CCC(CN3CCC(c4c[nH]c5ccccc45)CC3)CC2)cc1OC`, the IC50 came to 1070 nM.
Then `NC(Cc1ccc(Cl)cc1)=NCCN1CCCCCC1`, with 740 nM; and `COc1ccc(-c2cccc(NC(=O)c3cccc(Cl)c3)c2)cc1CN1CCN(C)CC1`, with 760 nM.
In the case of `NOCCCCOc1ccccc1`, the IC50 came out at 180 nM. Against the preceding compound, the IC50 is about 4.2-fold lower.
As for `CCOC(=O)C(C)(C)Oc1ccc(C(=C2CC(C)(C)CC(C)(C)C2)c2ccc(O)cc2)cc1`, the IC50 came out at 1130 nM. This IC50 is about 6.3-fold higher than that of the compound before.
The value for `Cc1cccc2[nH]c(-c3cccc(-c4cccc(NC(=O)Nc5ccsc5)c4)c3)nc12` was 170 nM.
The value for `Cc1cccc2[nH]c(-c3cccc(-c4ccc(NC(=O)COC(C)C)cc4)c3)nc12` was 1190 nM; that for `CCNc1cc(C(=O)N[C@@H](Cc2ccccc2)[C@H](O)CNC2CCSCC2)cc(N2CCCC2=O)c1` was 130 nM; that for `Cc1ccc(/C=C/C(=O)NCCCCCN2CCN(C(=O)Nc3ccc(Cl)c(C(F)(F)F)c3)CC2)cc1` was 1110 nM.
Regarding `Nc1nc2c(c(=O)[nH]1)CN(S(=O)(=O)c1ccc(C(=O)N[C@@H](CCC(=O)O)C(=O)O)cc1)CC2`, the IC50 worked out at 150 nM.
`COc1c(C2CCN(CCCCNC(=O)c3ccc(-c4ccc(C#N)cc4)cc3)CC2)cc(Cl)c2c1CCCC2` yielded an IC50 of 780 nM.
Compound `CCCCC(CC)NC(=O)[C@H]1CNCCN1C(=O)CCCc1ccccc1` (stereo not given in full) showed an IC50 of 890 nM. The IC50 values of the last two compounds are within 1.5-fold of each other.
In turn, `COC(=O)c1ccc(CN2CCC(N(Cc3cccc(Oc4ccccc4)c3)S(=O)(=O)c3ccc(NC(C)=O)cc3)CC2)cc1` returned an IC50 of 1050 nM. This IC50 and that of the compound before are within 1.5-fold of each other.
Then `CCC(C)c1ccc(Nc2nc(C)cc(N(CC)CCCN3CCCCC3)n2)cc1` (stereo not given), with 330 nM.
The value for `Cc1cccc2[nH]c(-c3ccc(-c4cccc(CN5CCCCC5)c4)s3)nc12` was 470 nM; that for `CCNC(=O)N[C@@H]1CN[C@@H](C#Cc2cc3c(Nc4ccc(OCc5cccc(F)c5)c(Cl)c4)ncnc3s2)C1` was 1010 nM.

For orientation: IC50 means the point on the concentration scale where inhibition reaches its midpoint. Higher therefore signals weaker potency in that assay.
